Measurements from the supplement of paper PMC7108870.

Key:
HEK293sieSTAT3(wt) [1] = assay: drug sensitivity score (DSS), viability CellTiter-Glo (DSS (dimensionless)); higher = more growth inhibition; extreme values may be limits of the assay; settings: 72 h; STAT3 variant: wild type
Outline: (§1)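 HEK293 cells bearing a STAT3-dependent luciferase reporter and overexpressing wild-type or mutant STAT3 were incubated with compounds at 5 concentrations in 10-fold steps for 72 hours at 37°C and 5% CO2. CellTox Green fluorescence and then CellTiter-Glo luminescence were measured, and values were normalised to negative and positive control wells. In Breeze, a drug sensitivity score was computed from the dose-response curve area.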

HEK293sieSTAT3(Y640F) [2] = assay: as above; settings: 72 h; STAT3 variant: Y640F (constitutively active)
Outline: as §1

HEK293sieSTAT3(wt) [3] = assay: drug sensitivity score (DSS), cytotoxicity CellTox Green (DSS (dimensionless)); higher = more cytotoxic; extreme values may be limits of the assay; settings: 72 h; STAT3 variant: wild type
Outline: as §1

HEK293sieSTAT3(Y640F) [4] = assay: as above; settings: 72 h; STAT3 variant: Y640F (constitutively active)
Outline: as §1

Row | Compound | drug sensitivity score (HEK293sieSTAT3(wt) [1]) | drug sensitivity score (HEK293sieSTAT3(Y640F) [2]) | drug sensitivity score (HEK293sieSTAT3(wt) [3]) | drug sensitivity score (HEK293sieSTAT3(Y640F) [4])
1 | Cc1c2oc3c(C)ccc(C(=O)N[C@@H]4C(=O)N[C@H](C(C)C)C(=O)N5CCC[C@H]5C(=O)N(C)CC(=O)N(C)[C@@H](C(C)C)C(=O)O[C@@H]4C)c3nc-2c(C(=O)N[C@@H]2C(=O)N[C@H](C(C)C)C(=O)N3CCC[C@H]3C(=O)N(C)CC(=O)N(C)[C@@H](C(C)C)C(=O)O[C@@H]2C)c(N)c1=O [Dactinomycin] (top concentration tested 1000 nM) | 35.4 | 32.5 | 0 | 0
2 | Cn1c(=O)n(-c2ccc(C(C)(C)C#N)cc2)c2c3cc(-c4cnc5ccccc5c4)ccc3ncc21 [Dactolisib] (top concentration tested 1000 nM) | 23 | 19.3 | 2.88 | 0
3 | CO[C@@H](C(=O)N1Cc2[nH]nc(NC(=O)c3ccc(N4CCN(C)CC4)cc3)c2C1)c1ccccc1 [Danusertib] (top concentration tested 10000 nM) | 7.14 | 6.46 | 11.8 | 0
4 | O=C(/C=C/c1cccnc1)NCCCCC1CCN(C(=O)c2ccccc2)CC1 [Daporinad] (top concentration tested 1000 nM) | 32.8 | 32.8 | 0 | 3.19
5 | CCN(CC)CCN(Cc1ccc(-c2ccc(C(F)(F)F)cc2)cc1)C(=O)Cn1c(SCc2ccc(F)cc2)nc(=O)c2c1CCC2 [Darapladib] (top concentration tested 1000 nM) | 1.03 | 1.89 | 0.65 | 1.32
6 | Cc1nc(Nc2ncc(C(=O)Nc3c(C)cccc3Cl)s2)cc(N2CCN(CCO)CC2)n1 [Dasatinib] (top concentration tested 1000 nM) | 2.74 | 6.45 | 1.81 | 0
7 | COc1cccc2c1C(=O)c1c(O)c3c(c(O)c1C2=O)C[C@@](O)(C(C)=O)C[C@@H]3O[C@H]1C[C@H](N)[C@H](O)[C@H](C)O1 [Daunorubicin] (top concentration tested 1000 nM) | 24 | 21.9 | 0 | 0
8 | Nc1ncn([C@H]2C[C@H](O)[C@@H](CO)O2)c(=O)n1 [Decitabine] (top concentration tested 10000 nM) | 10.4 | 7.35 | 3.31 | 0.02
9 | CC(=O)N(O)CCCCCNC(=O)CCC(=O)N(O)CCCCCNC(=O)CCC(=O)N(O)CCCCCN [Deferoxamine] (top concentration tested 10000 nM) | 3.23 | 2.48 | 1.09 | 0.01
10 | C[C@@H]1C[C@H]2[C@@H]3CCC4=CC(=O)C=C[C@]4(C)[C@@]3(F)[C@@H](O)C[C@]2(C)[C@@]1(O)C(=O)CO [Dexamethasone] (top concentration tested 10000 nM) | 2.01 | 3 | 0 | 0
11 | CCc1cnn2c(NCc3ccc[n+]([O-])c3)cc(N3CCCC[C@H]3CCO)nc12 [Dinaciclib] (top concentration tested 1000 nM) | 28.8 | 27.9 | 24.6 | 7.03
12 | CCN(CC)C(=S)SSC(=S)N(CC)CC [Disulfiram] (top concentration tested 100000 nM) | 30.2 | 31.1 | 30.4 | 30.9
13 | CC(=O)O[C@@]12CO[C@@H]1C[C@H](O)[C@@]1(C)C(=O)[C@H](O)C3=C(C)[C@@H](OC(=O)[C@H](O)[C@@H](NC(=O)OC(C)(C)C)c4ccccc4)C[C@@](O)([C@@H](OC(=O)c4ccccc4)[C@H]21)C3(C)C [Docetaxel] (top concentration tested 1000 nM) | 31 | 22.8 | 11.3 | 1.47
14 | Cc1ccc(-n2nc(C(C)(C)C)cc2NC(=O)Nc2ccc(OCCN3CCOCC3)c3ccccc23)cc1 [Doramapimod] (top concentration tested 10000 nM) | 3.87 | 5.05 | 0 | 0.14
15 | CN1CCN(c2ccc3nc(-c4c(N)c5c(F)cccc5[nH]c4=O)[nH]c3c2)CC1 [Dovitinib] (top concentration tested 10000 nM) | 0 | 0.03 | 0 | 0
16 | COc1cccc2c1C(=O)c1c(O)c3c(c(O)c1C2=O)C[C@@](O)(C(=O)CO)C[C@@H]3O[C@H]1C[C@H](N)[C@H](O)[C@H](C)O1 [Doxorubicin] (top concentration tested 1000 nM) | 19.3 | 18.6 | 0 | 0
17 | C[C@H](Nc1ncnc2nc[nH]c12)c1cc2cccc(Cl)c2c(=O)n1-c1ccccc1 [Duvelisib] (top concentration tested 500 nM) | 2.36 | 3.95 | 0 | 0
